Reference: patent US20200131144A1, “AMINE OR (THIO)AMIDE CONTAINING LXR MODULATORS” (Phenex-FXR GmbH, priority 2017, published 2020)
Read-outs that look alike come from different tables or passages of the source.

Legend:
[1] = Short term HFD mouse model: liver and plasma exposure after multiple oral dosing; format: in vivo, mice (C57BL/6J); details: C57BL/6J, HFD mice, 4 h after final dose; for Kp at 4 h: liver/plasma, read-out: liver/plasma ratio, 4 h
Description: Short Term HFD Mouse Model:
For this, C57BL/6J were purchased from Elevage Janvier (Rennes, France) at the age of 8 weeks. After an acclimation period of two weeks, animals were prefed on a high fat diet (HFD) (Ssniff Spezialdiäten GmbH, Germany, Surwit EF D12330 mod, Cat. No. E15771-34), with 60 kcal % from fat plus 1% (w/w) extra cholesterol (Sigma-Aldrich, St. Louis, Mo.) for 5 days. Animals were maintained on this diet during treatment with LXR modulators. The test compounds were formulated in 0.5% hydroxypropylmethylcellulose (HPMC) and administered in three doses (from 1.5 to 20 mg/kg each) by oral gavage according to the following schedule: on day one, animals received treatment in the morning and the evening (ca. 17:00), on day two animals received the final treatment in the morning after a 4 h fast and were sacrificed 4 h thereafter. Animal work was conducted according to the national guidelines for animal care in Germany.
Multiple oral dosing of compounds from the present invention in mice lead to a high liver exposure with a favourable liver to plasma ratio. […] These genes are related to hepatic de-novo lipogenesis. A suppression of these genes will reduce liver fat (liver triglycerides).

[2] = Pharmacokinetics in mice after single oral dosing, blood and liver exposure by LC-MS; format: in vivo, mice (C57/bl6/J); details: single oral dose 20 mg/kg
Method in brief: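 Male C57BL/6J mice fasted ≥12 h, given a single oral dose of 20 mg/kg (n=3 per group). Sacrifice at 4, 12 or 24 h post-dose; liver and blood levels quantified by LC-MS.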

[3] = molecular target: T1, LXRβ full length (FL) (Homo sapiens, UniProt P55055, INS174Q); assay: LXR Gal4 reporter transient transfection assay, mammalian two-hybrid, FL-M2H Gal4β; format: cell-based; details: HEK293 cells; inverse agonist unless *
T1 construct: the full length (FL) proteins of LXRα (amino acids 1-447); NP005684; NP009052; expressed in transfected cells; host or cells: HEK293
T1 sequence (P55055 with tags, fused parts or gaps INS174Q): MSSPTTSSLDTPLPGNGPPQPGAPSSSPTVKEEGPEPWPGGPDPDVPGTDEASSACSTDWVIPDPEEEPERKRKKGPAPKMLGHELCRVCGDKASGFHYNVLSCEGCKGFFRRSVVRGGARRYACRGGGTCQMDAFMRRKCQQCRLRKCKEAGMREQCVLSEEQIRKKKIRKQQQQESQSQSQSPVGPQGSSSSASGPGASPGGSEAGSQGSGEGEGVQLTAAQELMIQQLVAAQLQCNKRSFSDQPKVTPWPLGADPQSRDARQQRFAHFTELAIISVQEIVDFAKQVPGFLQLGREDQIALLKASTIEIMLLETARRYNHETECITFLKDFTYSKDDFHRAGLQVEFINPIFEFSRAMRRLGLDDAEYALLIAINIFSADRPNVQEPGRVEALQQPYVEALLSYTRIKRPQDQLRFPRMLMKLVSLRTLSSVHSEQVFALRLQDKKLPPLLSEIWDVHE
Method in brief: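 HEK293 cells transiently cotransfected with NFkB-AD fusions of full-length or LBD LXRα/β, GAL4-DBD fusions of SRC1 coactivator or NCoR corepressor domains, GAL4-driven firefly luciferase and Renilla control. Compound added 4 h post-transfection (≤0.2% DMSO), 16 h incubation; firefly and Renilla luminescence read sequentially.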

[4] = liver, three oral doses of 20 mg/kg each, read-out: liver exposure, 4 h
[5] = three oral doses of 20 mg/kg each
[6] = plasma, three oral doses of 20 mg/kg each, read-out: plasma exposure, 4 h
[7] = male, C57/bl6/J, mouse, liver/blood, time point 4 h, read-out: liver/blood ratio
[8] = liver, three oral doses of 10 mg/kg each, read-out: liver exposure, 4 h
[9] = three oral doses of 10 mg/kg each
[10] = plasma, three oral doses of 10 mg/kg each, read-out: plasma exposure, 4 h

Structure (SMILES)	concentration at 4 h [1, 4] [µM]	Kp at 4 h [1, 5]	concentration at 4 h [1, 6] [µM]	concentration at 4 h [1, 8] [µM]	Kp at 4 h [1, 9]	concentration at 4 h [1, 10] [µM]	EC50 [3] [µM]	also measured
Cc1ccc2ccccc2c1C(=O)N(Cc1ccc(-c2cccc(S(=O)(=O)CC(=O)O)c2)cc1)Cc1ccc(C(F)(F)F)o1 [Example 9]	18.2	135	0.134					Kp at 4 h [2, 7]: 72; Kp at 24 h ([2]; male, C57/bl6/J, mouse, liver/blood, time point 24 h, read-out: liver/blood ratio): 25; blood/plasma exposure ([2]; time point 4 h): 0.18 µM; liver exposure ([2]; time point 4 h): 12.7 µM; blood/plasma exposure ([2]; time point 24 h): 0.00 µM; liver exposure ([2]; time point 24 h): 0.10 µM
Cc1ccc2ccccc2c1C(=O)N(Cc1ccc(-c2cccc([C@@H](C)C(=O)O)c2)cc1)Cc1ccc(C(F)(F)F)o1 [10/5]				24.9	7.9	3.16	< 0.1	Kp at 4 h [2, 7]: 45; blood/plasma exposure ([2]; time point 4 h): 1.06 µM; liver exposure ([2]; time point 4 h): 47.9 µM
Cc1ccc2ccccc2c1C(=O)N(Cc1ccc(-c2cc(F)c(CO)c(S(=O)(=O)CC(=O)O)c2)cc1)Cc1ccc(C(F)(F)F)o1 [22/8]	2.82	55.7	0.051					Kp at 4 h [2, 7]: 19; Kp at 12 h ([2]; male, C57/bl6/J, mouse, liver/blood, time point 12 h, read-out: liver/blood ratio): 27; blood/plasma exposure ([2]; time point 4 h): 1.3 µM; liver exposure ([2]; time point 4 h): 23 µM; blood/plasma exposure ([2]; time point 12 h): 0.15 µM; liver exposure ([2]; time point 12 h): 4.1 µM
Cc1ccc2ccccc2c1C(=O)N(Cc1ccc(C(F)(F)F)o1)Cc1ccc(-c2cccc(C(C)(C)C(=O)O)c2)cc1C#N [27/7]	14.8	52.5	0.281				< 0.1	
COc1cc(-c2cccc(C(C)(C)C(=O)O)c2)ccc1CN(Cc1ccc(C(F)(F)F)o1)C(=O)c1c(C)ccc2ccccc12 [27/66]				75.3	189	0.399	< 0.1	
COc1c(C)nc2ccccc2c1C(=O)N(Cc1ccc(-c2cccc(C(C)(C)C(=O)O)c2)cc1)Cc1ccc(C(F)(F)F)o1 [27/81]				43.2	50.8	0.849	< 0.1	
COc1ccc2c(c1CN(Cc1ccc(-c3cccc(C(C)(C)C(=O)O)c3)cc1)Cc1ccc(C(F)(F)F)o1)CCCC2 [27/17]				6.8	2.3	2.92	< 0.1	
Cc1ccc2ccccc2c1C(=O)N(Cc1ccc(-c2cccc(C(C)(C)C(=O)O)c2)cc1)Cc1ccc(C(F)F)o1 [27/36]				80.2	26.6	3.02	< 0.1	
Cc1nc2cccnc2c(C(=O)N(Cc2ccc(-c3cccc(C(C)(C)C(=O)O)c3)cc2)Cc2ccc(C(F)(F)F)o2)c1C [27/93]				155	73.7	2.1	< 0.1	
Cc1cc(C)c(C(=O)N(Cc2ccc(-c3cccc(C(C)(C)C(=O)O)c3)cc2)Cc2ccc(C(F)(F)F)o2)c(C)c1 [10/1]							< 0.1	
Cc1ccc2ccccc2c1C(=O)N(Cc1ccc(-c2cccc(C(C)(C)C(=O)O)c2)cc1)Cc1ccc(C#N)o1 [27/38]	37.5	15.8	2.37				< 0.1	
Cc1ccc2ccccc2c1C(=O)N(Cc1ccc(-c2cc(F)cc(C3(C(=O)O)CC3)c2)cc1)Cc1ccc(C(F)(F)F)o1 [27/76]				37.9	16.4	2.31	< 0.1	
Cc1nc2ccccc2c(C(=O)N(Cc2ccc(-c3cccc(C(C)(C)C(=O)O)c3)cc2)Cc2ccc(C(F)(F)F)o2)c1C [27/79]				36.5	39.2	0.931	< 0.1	
COc1ccc2c(c1C(=O)N(Cc1ccc(-c3cccc(C(C)(C)C(=O)O)c3)cc1)Cc1ccc(C(F)(F)F)o1)CCCC2 [27/45]				320	367	0.871	< 0.1	
CC(C)(C(=O)O)c1cccc(-c2ccc(CN(Cc3ccc(C(F)(F)F)o3)C(=O)c3c4ccccc4cc4ccccc34)cc2)c1 [27/47]	38.4	36	1.07				< 0.1	
